Patent US20250313548A1 (Actio Biosciences, Inc., priority 2023, published 2025)

Biological target: human, KCNT1 (Homo sapiens (Human), UniProt Q5JUK3)
Assay: FLIPR Tl/K Flux Assay
Assay type: cell-based
Conditions: HEK293 cells stably expressing human KCNT1; Tl+ flux stimulated with EC80 of agonist Loxapine
How it was run: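 HEK293 cells stably expressing human KCNT1 were loaded with FLIPR potassium dye in HEPES/HBSS pH 7.4 with 5 mM probenecid, 1 h at 25 °C, then given test compound for 30 min at 25 °C. Tl+ flux was triggered with chloride-free buffer containing Tl+ and EC80 loxapine and read 160 s. IC50 came from Hill fits of % inhibition.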

Sequence of human, KCNT1 (Q5JUK3 whole entry): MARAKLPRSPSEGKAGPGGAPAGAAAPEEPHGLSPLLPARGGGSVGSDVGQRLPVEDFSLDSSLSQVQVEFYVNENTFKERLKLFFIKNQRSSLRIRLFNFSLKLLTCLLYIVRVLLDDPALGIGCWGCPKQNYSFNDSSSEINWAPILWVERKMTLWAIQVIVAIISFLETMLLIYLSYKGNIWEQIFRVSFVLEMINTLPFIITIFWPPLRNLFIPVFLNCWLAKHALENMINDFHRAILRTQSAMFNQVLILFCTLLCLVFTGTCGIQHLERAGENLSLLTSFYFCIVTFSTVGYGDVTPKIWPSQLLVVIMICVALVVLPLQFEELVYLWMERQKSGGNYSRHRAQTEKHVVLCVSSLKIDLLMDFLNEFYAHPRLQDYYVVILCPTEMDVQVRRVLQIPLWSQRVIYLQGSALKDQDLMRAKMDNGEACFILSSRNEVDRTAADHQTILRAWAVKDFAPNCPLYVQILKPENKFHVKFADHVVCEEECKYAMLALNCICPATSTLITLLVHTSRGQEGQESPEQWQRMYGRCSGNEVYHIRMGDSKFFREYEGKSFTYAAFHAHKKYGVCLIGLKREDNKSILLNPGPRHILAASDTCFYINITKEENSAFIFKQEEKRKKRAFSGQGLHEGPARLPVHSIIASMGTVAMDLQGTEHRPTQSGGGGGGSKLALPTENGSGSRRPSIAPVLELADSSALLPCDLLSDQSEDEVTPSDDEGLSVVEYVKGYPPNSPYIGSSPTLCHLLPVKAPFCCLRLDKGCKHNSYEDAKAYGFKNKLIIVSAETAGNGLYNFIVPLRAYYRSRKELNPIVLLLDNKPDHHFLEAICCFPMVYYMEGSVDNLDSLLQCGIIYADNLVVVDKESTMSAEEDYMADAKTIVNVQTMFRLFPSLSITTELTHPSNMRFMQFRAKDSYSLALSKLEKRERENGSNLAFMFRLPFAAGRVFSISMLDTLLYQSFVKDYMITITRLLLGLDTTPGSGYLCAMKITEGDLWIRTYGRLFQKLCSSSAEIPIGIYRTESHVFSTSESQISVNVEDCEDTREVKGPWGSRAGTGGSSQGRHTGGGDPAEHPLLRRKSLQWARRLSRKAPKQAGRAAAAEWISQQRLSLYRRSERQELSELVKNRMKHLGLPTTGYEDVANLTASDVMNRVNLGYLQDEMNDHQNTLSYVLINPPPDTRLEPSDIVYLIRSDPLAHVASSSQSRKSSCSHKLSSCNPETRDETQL

| IC50 [nM] | SMILES |
| --- | --- |
| > 1000 | Cn1nc(C(F)(F)F)cc1C(=O)N[C@H]1CCc2nn(-c3ccnc(C(C)(C)O)c3)cc21 [Compound I-76a] |
| < 250 | Cn1nc(C(F)(F)F)cc1C(=O)N[C@H]1CCc2nn(-c3ccnc(C(C)(F)F)c3)cc21 [Compound I-77a, (S)—N-(2-(2-(1,1-Difluoroethyl)pyridin-4-yl)-2,4,5,6-tetrahydrocyclopenta[c]pyrazol-4-yl)-1-methyl-3-(trifluoromethyl)-1H-pyrazole-5-carboxamide] |
| 500 to 1000 | Cn1nc(C(F)(F)F)cc1C(=O)N[C@@H]1CCc2nn(-c3ccnc(C(C)(F)F)c3)cc21 [Compound I-77b] |
| < 250 | C#Cc1cc(-n2cc3c(n2)CC[C@@H]3NC(=O)c2cc(C(F)(F)F)nn2C)ccn1 [Compound I-78a] |
| > 1000 | C#Cc1cc(-n2cc3c(n2)CC[C@H]3NC(=O)c2cc(C(F)(F)F)nn2C)ccn1 [Compound I-78b] |
| < 250 | Cn1nc(C(F)(F)F)cc1C(=O)N[C@H]1CCCc2sc(-c3ccnc(C(F)(F)F)c3)cc21 [Compound I-79a] |
| 500 to 1000 | Cn1nc(C(F)(F)F)cc1C(=O)N[C@H]1CCCc2sc(-c3ccnc(C(F)(F)F)c3)nc21 [Compound I-80a] |
| > 1000 | Cn1nc(C(F)(F)F)cc1C(=O)N[C@@H]1CCCc2sc(-c3ccnc(C(F)(F)F)c3)nc21 [Compound I-80b] |
| < 250 | Cn1nc(C(F)(F)F)cc1C(=O)N[C@H]1CCCc2cc(-c3ccnc(C(F)(F)F)c3)sc21 [Compound I-81a] |
| < 250 | Cn1nc(C(F)(F)F)cc1C(=O)N[C@H]1CCCc2nc(-c3ccnc(C(F)(F)F)c3)sc21 [Compound I-82a] |
| < 250 | Cn1nc(C(F)(F)F)cc1C(=O)NC1CCCc2nc(-c3ccnc(C(F)(F)F)c3)oc21 (centres unmarked) [Compound I-83] |
| < 250 | Cn1nc(C(F)(F)F)cc1C(=O)N[C@H]1CCCc2oc(-c3ccnc(C(F)(F)F)c3)nc21 [Compound I-84a] |
| < 250 | Cn1nc(C(F)(F)F)cc1C(=O)N[C@H]1CCCn2nc(-c3ccnc(C(F)(F)F)c3)nc21 [Compound I-86a, (S)-1-Methyl-3-(trifluoromethyl)-N-(2-(2-(trifluoromethyl)pyridin-4-yl)-5,6,7,8-tetrahydro-[1,2,4]triazolo[1,5-a]pyridin-8-yl)-1H-pyrazole-5-carboxamide] |
| 500 to 1000 | Cn1nc(C(F)(F)F)cc1C(=O)N[C@H]1CCCc2cn(-c3ccnc(C(F)(F)F)c3)nc21 [Compound I-87a] |
| > 1000 | Cn1nc(C(F)(F)F)cc1C(=O)N[C@@H]1CCCc2cn(-c3ccnc(C(F)(F)F)c3)nc21 [Compound I-87b] |
| > 1000 | Cn1nc(C(F)(F)F)cc1C(=O)N[C@H]1CCCc2nn(-c3ccnc(C(=O)O)c3)cc21 [Compound I-88a] |
| > 1000 | Cn1nc(C(F)(F)F)cc1C(=O)N[C@H]1CCCc2cc(-c3ccnc(C(F)(F)F)c3)[nH]c21 [Compound I-89a, (S)-1-Methyl-3-(trifluoromethyl)-N-(2-(2-(trifluoromethyl)pyridin-4-yl)-4,5,6,7-tetrahydro-1H-indol-7-yl)-1H-pyrazole-5-carboxamide] |
| 250 to 500 | Cc1c2c(nn1-c1ccnc(C(F)(F)F)c1)CCC[C@@H]2NC(=O)c1cc(C(F)(F)F)nn1C [Compound I-90a] |
| < 250 | O=C(N[C@H]1CCc2nn(-c3ccnc(C(F)(F)F)c3)cc21)c1ccccc1 [Compound I-91a] |
| > 1000 | O=C(N[C@@H]1CCc2nn(-c3ccnc(C(F)(F)F)c3)cc21)c1ccccc1 [Compound I-91b] |

| IC50 [nM] | SMILES |
| --- | --- |
| < 250 | Cc1ccccc1C(=O)N[C@H]1CCc2nn(-c3ccnc(C(F)(F)F)c3)cc21 [Compound I-92a] |
| > 1000 | Cc1ccccc1C(=O)N[C@@H]1CCc2nn(-c3ccnc(C(F)(F)F)c3)cc21 [Compound I-92b] |
| < 250 | Cc1ccc(C(=O)N[C@H]2CCc3nn(-c4ccnc(C(F)(F)F)c4)cc32)c(C)c1 [Compound I-93a] |
| > 1000 | Cc1ccc(C(=O)N[C@@H]2CCc3nn(-c4ccnc(C(F)(F)F)c4)cc32)c(C)c1 [Compound I-93b] |
| < 250 | COc1ccccc1C(=O)N[C@H]1CCc2nn(-c3ccnc(C(F)(F)F)c3)cc21 [Compound I-94a] |
| > 1000 | COc1ccccc1C(=O)N[C@@H]1CCc2nn(-c3ccnc(C(F)(F)F)c3)cc21 [Compound I-94b] |
| < 250 | Cc1cc(Cl)ccc1C(=O)N[C@H]1CCc2nn(-c3ccnc(C(F)(F)F)c3)cc21 [Compound I-95a] |
| > 1000 | Cc1cc(Cl)ccc1C(=O)N[C@@H]1CCc2nn(-c3ccnc(C(F)(F)F)c3)cc21 [Compound I-95b] |
| > 1000 | CS(=O)(=O)c1ccc(C(=O)N[C@H]2CCc3nn(-c4ccnc(C(F)(F)F)c4)cc32)cc1 [Compound I-96a] |
| > 1000 | CS(=O)(=O)c1ccc(C(=O)N[C@@H]2CCc3nn(-c4ccnc(C(F)(F)F)c4)cc32)cc1 [Compound I-96b] |
| < 250 | Cc1cccc(C(=O)N[C@H]2CCc3nn(-c4ccnc(C(F)(F)F)c4)cc32)c1 [Compound I-97a] |
| > 1000 | Cc1cccc(C(=O)N[C@@H]2CCc3nn(-c4ccnc(C(F)(F)F)c4)cc32)c1 [Compound I-97b] |
| < 250 | Cc1cc(Cl)cc(C(=O)N[C@H]2CCc3nn(-c4ccnc(C(F)(F)F)c4)cc32)c1 [Compound I-98a] |
| > 1000 | Cc1cc(Cl)cc(C(=O)N[C@@H]2CCc3nn(-c4ccnc(C(F)(F)F)c4)cc32)c1 [Compound I-98b] |
| < 250 | O=C(N[C@H]1CCc2nn(-c3ccnc(C(F)(F)F)c3)cc21)c1cc(Cl)cc(Cl)c1 [Compound I-99a] |
| 500 to 1000 | O=C(N[C@@H]1CCc2nn(-c3ccnc(C(F)(F)F)c3)cc21)c1cc(Cl)cc(Cl)c1 [Compound I-99b] |
| < 250 | O=C(N[C@H]1CCc2nn(-c3ccnc(C(F)(F)F)c3)cc21)c1cc(F)cc(F)c1 [Compound I-100a] |
| > 1000 | O=C(N[C@@H]1CCc2nn(-c3ccnc(C(F)(F)F)c3)cc21)c1cc(F)cc(F)c1 [Compound I-100b] |
| < 250 | CN(C(=O)N[C@H]1CCc2nn(-c3ccnc(C(F)(F)F)c3)cc21)c1ccccc1 [Compound I-102a] |
| < 250 | CC(C)(C)CC(=O)N[C@H]1CCc2nn(-c3ccnc(C(F)(F)F)c3)cc21 [Compound I-103a] |

| IC50 [nM] | SMILES |
| --- | --- |
| > 1000 | CC(C)(C)CC(=O)N[C@@H]1CCc2nn(-c3ccnc(C(F)(F)F)c3)cc21 [Compound I-103b] |
| 500 to 1000 | CC(C)(C)C(=O)N[C@H]1CCc2nn(-c3ccnc(C(F)(F)F)c3)cc21 [Compound I-104a] |
| > 1000 | CC(C)(C)C(=O)N[C@@H]1CCc2nn(-c3ccnc(C(F)(F)F)c3)cc21 [Compound I-104b] |
| < 250 | CC(C)(C)OC(=O)N[C@H]1CCc2nn(-c3ccnc(C(F)(F)F)c3)cc21 [Compound I-105a] |
| > 1000 | CC(C)(C)OC(=O)N[C@@H]1CCc2nn(-c3ccnc(C(F)(F)F)c3)cc21 [Compound I-105b] |
| < 250 | O=C(N[C@H]1CCc2nn(-c3ccnc(C(F)(F)F)c3)cc21)C1CCC(F)(F)CC1 [Compound I-106a] |
| > 1000 | O=C(N[C@@H]1CCc2nn(-c3ccnc(C(F)(F)F)c3)cc21)C1CCC(F)(F)CC1 [Compound I-106b] |
| > 1000 | O=C(N[C@@H]1CCCCc2nn(-c3ccnc(C(F)(F)F)c3)cc21)c1cc(Cl)cc(C(F)(F)F)c1 [Compound I-109b] |
| < 250 | O=C(N[C@H]1CCCCc2nn(-c3ccnc(C4CC4)c3)cc21)c1cc(Cl)cc(C(F)(F)F)c1 [Compound I-110a] |
| < 250 | O=C(N[C@H]1CCCn2nc(-c3ccnc(C4CC4)c3)cc21)c1cc(Cl)cc(C(F)(F)F)c1 [Compound I-111a] |
| < 250 | N#Cc1cccc(C(=O)N[C@H]2CCCc3nn(-c4ccnc(C(F)(F)F)c4)cc32)c1 [Compound I-112a, (S)-3-Cyano-N-(2-(2-(trifluoromethyl)pyridin-4-yl)-4,5,6,7-tetrahydro-2H-indazol-4-yl)benzamide] |
| 250 to 500 | Cn1nc(C#N)cc1C(=O)N[C@H]1CCCc2nn(-c3ccnc(C(F)(F)F)c3)cc21 [Compound I-113a] |
| < 250 | Cn1nc(C(F)(F)F)cc1C(=O)N[C@H]1CCCc2cnc(-c3ccnc(C(F)(F)F)c3)cc21 [Compound I-116a] |
| < 250 | Cn1nc(C(F)(F)F)cc1C(=O)N[C@H]1CCCn2nc(-c3cc(C(F)(F)F)cs3)cc21 [Compound I-117a] |
| < 250 | Cn1nc(C(F)(F)F)cc1C(=O)N[C@H]1CCc2cnc(-c3ccnc(C(F)(F)F)c3)cc21 [Compound I-118a] |
| < 250 | O=C(N[C@H]1CCn2nc(-c3ccnc(C(F)(F)F)c3)cc21)c1cc(F)cc(F)c1 [Compound I-120a, (S)-3,5-difluoro-N-(2-(2-(trifluoromethyl)pyridin-4-yl)-5,6-dihydro-4H-pyrrolo[1,2-b]pyrazol-4-yl)benzamide] |
| < 250 | Cn1nc(C(F)(F)F)cc1C(=O)N[C@H]1CCCc2oc(-c3ccnc(C4CC4)c3)nc21 [Compound I-121a, (S)—N-(2-(2-Cyclopropylpyridin-4-yl)-4,5,6,7-tetrahydrobenzo[d]oxazol-4-yl)-1-methyl-3-(trifluoromethyl)-1H-pyrazole-5-carboxamide] |
| < 250 | Cc1cnc(C(F)(F)F)cc1-c1cc2n(n1)CCC[C@@H]2NC(=O)c1cc(C(F)(F)F)nn1C [Compound I-122a, (S)-1-Methyl-N-(2-(5-methyl-2-(trifluoromethyl)pyridin-4-yl)-4,5,6,7-tetrahydropyrazolo[1,5-a]pyridin-4-yl)-3-(trifluoromethyl)-1H-pyrazole-5-carboxamide] |
| < 250 | Cn1nc(C(F)(F)F)cc1C(=O)N[C@H]1CCn2nc(-c3ccnc(C(F)(F)F)c3)cc21 [Compound I-123a, (S)-1-methyl-3-(trifluoromethyl)-N-(2-(2-(trifluoromethyl)pyridin-4-yl)-5,6-dihydro-4H-pyrrolo[1,2-b]pyrazol-4-yl)-1H-pyrazole-5-carboxamide] |
